Laboratory results from patent US20040185108A1, “Method of preparing gas-filled polymer matrix microparticles useful for delivering drug” (priority 2003, published 2004).

Test: Release of oxybutynin using ultrasound from oxybutynin-containing polymer matrix microparticles (reverse phase HPLC)
Type: physicochemical
Procedure: Four vials containing product manufactured in accordance with Example 5 were each reconstituted with 10 mL of 20 mM KPO4 at pH 3.5 (wash solution). The oxybutynin containing microparticles from two of the vials were retrieved by centrifugation at 1500 rpm for 15 minutes. The microparticles were resuspended in 10 mL of wash solution and vortexed. The washing procedure was repeated two more times. The final washed matrix microparticles were resuspended in a total volume of 10 mL of wash solution. The remaining two vials were not washed. One vial from each set was designated the control sample and the other vial was the experimental sample.
The controls remained undisturbed for 80 minutes to allow the matrix microparticles to float. The subnatant was removed and centrifuged at 14,000 rpm for 2 minutes. The experimental samples were each sonicated for 1 minute on level 5 using a Virtis Virsonic hand-held sonicator. […] The suspensions were centrifuged at 14,000 rpm for 2 minutes. All four of the resulting supernatants were retrieved and analyzed by reverse phase HPLC. […] The amount of oxybutynin in each sample was calculated from the area using the standard curve.

burst release of oxybutynin, of the recovered amount (microparticles of Example 5): 34%
oxybutynin released due to sonication, of the recovered amount (microparticles of Example 5): 66%
amount of oxybutynin in supernatant, unwashed control sample (microparticles of Example 5, unwashed, not sonicated, undisturbed 80 minutes): 0.65 mg oxybutynin/vial
amount of oxybutynin in supernatant, unwashed experimental sample (microparticles of Example 5, unwashed, sonicated 1 minute level 5): 1.93 mg/vial
leakage of drug after reconstitution (microparticles of Example 5, washed control, burst release removed): little to no leakage
amount of oxybutynin in supernatant, washed control sample (microparticles of Example 5, washed, not sonicated, undisturbed 80 minutes, 20 mM KPO4 pH 3.5): 0.03 mg oxybutynin/vial
amount of oxybutynin in supernatant, washed experimental sample (microparticles of Example 5, washed, sonicated 1 minute level 5, 20 mM KPO4 pH 3.5): 1.05 mg/vial
total oxybutynin recovered after sonication compared to theoretical loading (microparticles of Example 5, theoretical loading 2.4 mg/vial): 80%
SMILES: CCN(CC)CC#CCOC(=O)C(O)(c1ccccc1)C1CCCCC1 (centres unmarked) [oxybutynin]
